Experimental data reported in ChEMBL document CHEMBL1201862, “PubChem BioAssay data set” (2004).
Calls of active or inactive are those of the source.

Legend:
HEK293 [1] = assay: cells; conditions: Homo sapiens
HEK293 [2] = assay: cells; conditions: Homo sapiens; remark: listed apart in the source
[3] = Trypanosoma cruzi growth suppression in host cells – NIH3T3 host cells, beta-gal luminescence, confirmation (AID 2044); type: functional, cell-based;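 note: intracellular parasites grown in NIH/3T3 mouse fibroblasts as host cells; luminescent beta-galactosidase reporter signal from transgenic T. cruzi replicating inside host cells; inhibitors lower the luminescence signal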
[4] = Vero E6 cell cytotoxicity, dose response, cytotoxicity control for non-replicating M. tuberculosis project, secondary assay (AID 492998); type: functional, VeroE6; conditions: Vero C1008
A-375 = assay: MITF: Counter assay: A375 proliferation Measured in Cell-Based System Using Plate Reader - 2084-03_Inhibitor_Dose_DryPowder_Activity. [Related pubchem assays (depositor defined):AID488944]; type: functional; conditions: Homo sapiens
[5] = NIH3T3 cell viability loss – ATP luminescence, mouse fibroblasts, counter-screen, dose response (AID 2010); type: functional, cell-based;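 note: cells exposed to compound for about 90 hours before reading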
[6] = T. cruzi infection blockers in NIH3T3 cells – beta-gal luminescence, NIH3T3 host cells, confirmation (AID 2630); type: functional, cell-based; conditions: Mus musculus
[7] = NIH/3T3 cell viability loss – mouse embryonic fibroblasts, dry powder, set 2, cytotoxicity control, dose response (AID 493247); type: functional, cell-based; conditions: Fibroblast
[8] = target: T1, Microphthalmia-associated transcription factor (Homo sapiens, UniProt O75030); assay: reducers of TRPM1 reporter luminescence, concentration series – cell-based, SK-MEL-5, cherry-picked, set 3, MITF inhibitor project, dose response (AID 493073); type: functional;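 note: SK-MEL-5 melanoma cells with luciferase driven by the MITF target TRPM1 promoter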
T1 sequence (O75030 whole entry): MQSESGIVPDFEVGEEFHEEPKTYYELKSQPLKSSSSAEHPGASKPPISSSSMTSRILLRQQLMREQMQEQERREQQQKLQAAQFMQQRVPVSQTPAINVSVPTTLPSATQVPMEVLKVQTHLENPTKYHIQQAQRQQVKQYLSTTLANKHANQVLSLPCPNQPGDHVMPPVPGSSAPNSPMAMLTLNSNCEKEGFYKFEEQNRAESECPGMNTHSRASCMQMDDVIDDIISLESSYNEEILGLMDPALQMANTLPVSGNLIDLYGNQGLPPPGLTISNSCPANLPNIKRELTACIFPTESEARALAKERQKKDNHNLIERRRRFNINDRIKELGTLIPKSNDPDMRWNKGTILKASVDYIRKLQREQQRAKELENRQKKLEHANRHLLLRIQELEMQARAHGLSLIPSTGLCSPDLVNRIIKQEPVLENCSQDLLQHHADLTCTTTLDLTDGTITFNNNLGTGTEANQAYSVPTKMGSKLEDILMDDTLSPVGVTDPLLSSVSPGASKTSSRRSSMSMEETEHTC

cells [9] = assay: cells
Trypanosoma cruzi = assay: anti-trypanosomal activity in host cells – cell-based, plate reader, dry powder, set 3, dose response (AID 493197); type: functional
cells [10] = type: functional
[11] = THP-1 cell cytotoxicity, dose response, cytotoxicity control for non-replicating M. tuberculosis project (AID 489025); type: functional
[12] = HepG2 cell cytotoxicity, dose response, cytotoxicity control for non-replicating M. tuberculosis project (AID 489018); type: functional; conditions: Mycobacterium tuberculosis
[13] = Luminescence Cell-Based Dose Retest to Confirm Inhibitors of Cancer Stem Cells. [Related pubchem assays (depositor defined):AID2717, AID2721]; type: functional; conditions: Homo sapiens
[14] = CCR5-tropic HIV-1 fusion blockers – cell-based, CCR5-tropic Env, dose response (AID 2279); type: functional
[15] = target: T2, Apoptotic protease-activating factor 1 (Homo sapiens, UniProt O14727); assay: activation of Apaf-1 mediated apoptosis – fluorescent, uHTS hits, dose response (AID 588554); type: functional
T2 sequence (O14727 whole entry): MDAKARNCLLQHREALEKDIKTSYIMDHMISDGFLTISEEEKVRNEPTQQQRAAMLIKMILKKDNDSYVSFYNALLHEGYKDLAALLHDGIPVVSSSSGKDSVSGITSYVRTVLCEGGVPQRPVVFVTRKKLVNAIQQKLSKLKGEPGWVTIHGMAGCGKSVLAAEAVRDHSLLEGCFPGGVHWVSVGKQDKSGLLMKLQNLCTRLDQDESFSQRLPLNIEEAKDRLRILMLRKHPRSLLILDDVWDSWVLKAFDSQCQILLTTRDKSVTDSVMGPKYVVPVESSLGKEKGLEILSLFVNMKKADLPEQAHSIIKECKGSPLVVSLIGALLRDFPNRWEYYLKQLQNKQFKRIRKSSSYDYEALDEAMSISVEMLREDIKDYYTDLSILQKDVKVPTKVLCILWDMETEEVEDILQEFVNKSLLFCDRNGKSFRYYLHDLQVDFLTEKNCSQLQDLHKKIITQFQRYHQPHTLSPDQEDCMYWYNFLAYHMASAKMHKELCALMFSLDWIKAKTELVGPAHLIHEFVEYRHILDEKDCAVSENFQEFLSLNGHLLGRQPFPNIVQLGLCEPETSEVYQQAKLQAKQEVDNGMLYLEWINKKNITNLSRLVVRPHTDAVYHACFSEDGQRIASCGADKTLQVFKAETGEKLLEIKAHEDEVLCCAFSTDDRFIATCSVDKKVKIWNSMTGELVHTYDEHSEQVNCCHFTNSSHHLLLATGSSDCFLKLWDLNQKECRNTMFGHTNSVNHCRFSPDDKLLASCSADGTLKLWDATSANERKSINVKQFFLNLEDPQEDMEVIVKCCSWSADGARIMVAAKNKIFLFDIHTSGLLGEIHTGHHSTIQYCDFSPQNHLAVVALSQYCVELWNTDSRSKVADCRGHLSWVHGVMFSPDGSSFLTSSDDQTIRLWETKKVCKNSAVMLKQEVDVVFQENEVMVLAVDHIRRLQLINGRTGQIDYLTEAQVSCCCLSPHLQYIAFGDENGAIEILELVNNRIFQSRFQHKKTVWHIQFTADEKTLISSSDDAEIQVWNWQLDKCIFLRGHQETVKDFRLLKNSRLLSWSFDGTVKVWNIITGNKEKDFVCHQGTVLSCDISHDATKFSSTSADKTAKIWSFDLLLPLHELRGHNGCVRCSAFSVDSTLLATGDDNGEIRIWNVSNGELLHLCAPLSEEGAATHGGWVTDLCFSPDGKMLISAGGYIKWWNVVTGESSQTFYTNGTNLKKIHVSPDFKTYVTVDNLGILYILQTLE

[16] = target: T3, Calpain-2 catalytic subunit (Sus scrofa, UniProt P43367); assay: m-calpain protease blockers, concentration series – biochemical, fluorogenic peptide substrate, dose response (AID 1420); type: functional
T3 sequence (P43367 whole entry): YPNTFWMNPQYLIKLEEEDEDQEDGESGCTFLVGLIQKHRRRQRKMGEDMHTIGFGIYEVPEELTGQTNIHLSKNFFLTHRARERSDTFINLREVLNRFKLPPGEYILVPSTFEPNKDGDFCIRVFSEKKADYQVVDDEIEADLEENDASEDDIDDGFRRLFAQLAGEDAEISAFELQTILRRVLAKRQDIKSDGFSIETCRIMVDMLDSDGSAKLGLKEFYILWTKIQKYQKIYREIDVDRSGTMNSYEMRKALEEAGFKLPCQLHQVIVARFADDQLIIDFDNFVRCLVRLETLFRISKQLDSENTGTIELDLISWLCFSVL

[17] = target: Luciferin 4-monooxygenase (Photuris pensylvanica, UniProt Q27757); assay: inhibition of Cell Titer Glo luciferase signal – biochemical, luminescence, cherry-picks, counter-screen for HSF-1 reporter inhibitor project, dose response (AID 588847)
[18] = target: G-protein coupled receptor 55 (Homo sapiens, UniProt Q9Y2T6); assay: inhibition of LPI-stimulated GPR55 beta-arrestin translocation – imaging, U2OS, beta-arrestin-GFP, LPI agonist, primary screen (AID 2013); type: functional;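 note: antagonist potency measured as reduced agonist-driven arrestin aggregation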
[19] = target: T4, Ubiquitin-conjugating enzyme E2 N (Homo sapiens, UniProt P61088); type: functional;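 note: Dose-response confirmation in a TR-FRET assay detecting UBC13-driven polyubiquitin chain formation, inhibition measured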
T4 sequence (P61088 whole entry): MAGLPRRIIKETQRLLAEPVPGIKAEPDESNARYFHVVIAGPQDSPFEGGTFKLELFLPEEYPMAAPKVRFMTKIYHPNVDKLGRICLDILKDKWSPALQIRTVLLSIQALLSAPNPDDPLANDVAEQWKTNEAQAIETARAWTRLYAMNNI

[20] = target: Serine/threonine-protein phosphatase (Candida dubliniensis (strain CD36 / CBS 7987 / NCPF 3949 / NRRLY-17841) (Yeast), UniProt B9W6M3); assay: blockers of CaCl2-induced CDRE-lacZ signaling – S. cerevisiae, luminescence, secondary, dose response (AID 2388); type: functional, cell-based;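 note: yeast reporter cells carrying a calcineurin-responsive lacZ construct stimulated with calcium chloride; luminescent beta-galactosidase reporter signal in whole cells rather than isolated phosphatase activity; potency for inhibition where a drop in reporter signal means calcineurin blockade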
[21] = MIN6 cell viability loss – mouse insulinoma, cytotoxicity control, dose response (AID 2122); type: functional;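 note: confirmatory high-throughput counterscreen run to flag cytotoxic compounds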
[22] = loss of viability in HepG2 cells – cell-based, CellTiter-Glo, cherry-picked, cytotoxicity control for Shn3 inhibitor project, dose response (AID 624134); type: functional
[23] = fluconazole-exposed Candida albicans growth modulators – fluorescence, retest, confirmation (AID 2467); type: functional, cell-based
[24] = non-specific 3'UTR reporter inhibition in Clone20-Shn3RL – cell-based, Renilla luciferase, cherry-picked, counter-screen for Shn3 inhibitor project, dose response (AID 624133); type: functional
[25] = target: ATP-dependent molecular chaperone HSP82 (Candida albicans (strain WO-1) (Yeast), UniProt C4YTQ8); assay: steroid-induced GRE reporter decrease in yeast – S. cerevisiae, luminescence, Hsp90 inhibitor project, dose response (AID 2400); type: functional, cell-based;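 note: beta-galactosidase luminescence from glucocorticoid response element reporter as proxy for Hsp90 function; inhibitor potency where signal loss means Hsp90 inhibition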
[26] = decrease of insulin promoter-GFP reporter – imaging, high-content screening, mouse beta cells (AID 1628); type: functional; conditions: MIN6
[27] = reduction of Shn3 3'UTR-driven luciferase in osteoblasts – cell-based, Clone20 osteoblasts, firefly luciferase, cherry-picked, dose response (AID 624132); type: functional;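 note: firefly luciferase luminescence from reporter carrying the Shn3 3'UTR in osteoblasts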
[28] = NIH-3T3 fibroblast cytotoxicity, dose response, cytotoxicity control, cell-based, fluorescence, Alamar Blue, secondary assay (AID 2327); type: functional;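 note: NIH-3T3 mouse fibroblasts cultured with fluconazole at 8 µg/mL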

Serine/threonine-protein phosphatase, sequence (B9W6M3 whole entry): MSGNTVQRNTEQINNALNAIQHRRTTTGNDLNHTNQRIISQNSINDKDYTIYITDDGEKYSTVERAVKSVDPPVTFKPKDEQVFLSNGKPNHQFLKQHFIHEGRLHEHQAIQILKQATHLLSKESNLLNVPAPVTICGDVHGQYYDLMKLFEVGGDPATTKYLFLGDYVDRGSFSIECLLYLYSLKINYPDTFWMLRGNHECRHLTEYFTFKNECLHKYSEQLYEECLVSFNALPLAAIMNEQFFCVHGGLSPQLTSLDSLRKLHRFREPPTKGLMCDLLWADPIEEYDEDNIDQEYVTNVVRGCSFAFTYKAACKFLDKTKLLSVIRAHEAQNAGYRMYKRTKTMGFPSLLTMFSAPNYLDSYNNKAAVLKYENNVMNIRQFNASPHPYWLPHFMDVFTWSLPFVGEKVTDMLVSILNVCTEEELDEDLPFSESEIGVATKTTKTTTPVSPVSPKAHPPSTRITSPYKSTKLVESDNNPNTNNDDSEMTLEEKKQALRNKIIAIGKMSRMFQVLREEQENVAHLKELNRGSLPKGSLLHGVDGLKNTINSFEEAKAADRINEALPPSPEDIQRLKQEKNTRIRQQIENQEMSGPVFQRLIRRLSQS
G-protein coupled receptor 55, sequence (Q9Y2T6 whole entry): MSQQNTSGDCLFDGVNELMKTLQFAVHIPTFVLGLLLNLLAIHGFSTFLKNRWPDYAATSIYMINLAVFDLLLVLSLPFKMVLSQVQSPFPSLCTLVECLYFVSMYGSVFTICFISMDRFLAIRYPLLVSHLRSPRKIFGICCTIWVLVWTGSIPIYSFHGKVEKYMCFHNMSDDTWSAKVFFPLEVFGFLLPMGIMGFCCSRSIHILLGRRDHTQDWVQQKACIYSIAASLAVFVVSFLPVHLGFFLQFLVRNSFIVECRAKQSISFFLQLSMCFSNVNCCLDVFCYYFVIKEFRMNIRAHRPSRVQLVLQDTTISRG
ATP-dependent molecular chaperone HSP82, sequence (C4YTQ8 whole entry): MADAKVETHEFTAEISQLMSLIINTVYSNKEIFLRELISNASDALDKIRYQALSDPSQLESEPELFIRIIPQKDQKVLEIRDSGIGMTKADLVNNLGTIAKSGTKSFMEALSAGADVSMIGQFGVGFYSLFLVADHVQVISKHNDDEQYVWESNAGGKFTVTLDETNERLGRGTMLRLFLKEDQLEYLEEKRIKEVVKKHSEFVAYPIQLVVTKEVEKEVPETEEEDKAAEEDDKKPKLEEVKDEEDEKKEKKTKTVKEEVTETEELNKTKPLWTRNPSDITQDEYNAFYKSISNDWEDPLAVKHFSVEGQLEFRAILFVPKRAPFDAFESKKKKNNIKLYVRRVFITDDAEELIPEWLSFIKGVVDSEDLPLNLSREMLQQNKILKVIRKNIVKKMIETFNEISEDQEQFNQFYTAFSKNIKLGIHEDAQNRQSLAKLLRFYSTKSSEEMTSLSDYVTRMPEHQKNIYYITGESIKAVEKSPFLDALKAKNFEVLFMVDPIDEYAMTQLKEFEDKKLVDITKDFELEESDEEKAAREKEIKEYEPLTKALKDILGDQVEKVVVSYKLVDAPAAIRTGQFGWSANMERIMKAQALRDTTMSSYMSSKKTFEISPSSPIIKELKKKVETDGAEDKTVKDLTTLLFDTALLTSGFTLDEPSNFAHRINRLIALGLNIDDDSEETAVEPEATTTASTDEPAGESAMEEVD
Luciferin 4-monooxygenase, sequence (Q27757 whole entry): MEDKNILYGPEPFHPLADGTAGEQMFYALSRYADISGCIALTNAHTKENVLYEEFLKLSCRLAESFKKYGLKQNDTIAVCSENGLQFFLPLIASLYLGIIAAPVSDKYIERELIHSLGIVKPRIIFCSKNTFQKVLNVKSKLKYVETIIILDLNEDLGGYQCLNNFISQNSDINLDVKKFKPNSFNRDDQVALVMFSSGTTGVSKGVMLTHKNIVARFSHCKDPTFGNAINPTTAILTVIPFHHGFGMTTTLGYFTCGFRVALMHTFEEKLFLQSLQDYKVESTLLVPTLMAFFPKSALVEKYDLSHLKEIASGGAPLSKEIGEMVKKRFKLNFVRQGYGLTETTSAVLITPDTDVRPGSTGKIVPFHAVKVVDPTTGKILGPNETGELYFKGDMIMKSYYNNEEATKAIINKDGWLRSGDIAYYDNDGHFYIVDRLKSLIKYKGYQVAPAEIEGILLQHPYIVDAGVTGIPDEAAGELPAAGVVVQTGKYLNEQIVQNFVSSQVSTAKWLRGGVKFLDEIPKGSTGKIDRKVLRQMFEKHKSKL

With `O=C(NC12CC3CC(CC(C3)C1)C2)N(Cc1ccccc1)Cc1ccncc1` the EC50 (HEK293 [1]) was > 59.6 µM (inactive) and the EC50 (HEK293 [2]) was > 59.6 µM (inactive).
For `O=C(CNc1cccc([N+](=O)[O-])c1)N/N=C/c1ccc([N+](=O)[O-])o1`, the EC50 [3] was < 0.1 µM (active), the CC50 [4] was 11.6 µM (active) and the AC50 (A-375) was 41.8 µM (active). For the same compound, the EC50 [5] was > 60 µM (not active), the EC50 [6] was 0.0205 µM (active) and the AC50 [7] was 35.6 µM (active). For the same compound, the AC50 [8] was 8.63 µM (active), the EC50 (cells [9]) was 0.055 µM (active) and the AC50 (Trypanosoma cruzi) was 0.061 µM (active). For the same compound, the IC50 (cells [10]) was 5.42 µM (active), the CC50 [11] was 14.1 µM (active) and the CC50 [12] was 10.1 µM (active).
In the case of `O=C(N/N=C/c1cc(Cl)cc([N+](=O)[O-])c1O)NC12CC3CC(CC(C3)C1)C2`, the AC50 [13] is reported as 5.03 µM (active), the IC50 [14] is reported as 40 µM (active) and the EC50 [15] is reported as 6.87 µM (active).
For `Cc1nn(-c2cccc(C(F)(F)F)c2)c(Cl)c1/C=N/Nc1cccc(C(=O)O)c1`, the IC50 [16] was 11.4 µM (not active) and the AC50 [17] was > 52 µM (inactive).
For `Cc1cc(Nc2ccccc2)nc(NCc2ccccc2)n1`, the IC50 [18] was 2.05 µM (active), the IC50 [19] was > 20 µM (inactive) and the EC50 [20] was > 180 µM (inactive). For the same compound, the IC50 [21] was 0.571 µM (active), the AC50 [22] was 20.5 µM (active) and the EC50 [23] was 0.783 µM (active). For the same compound, the AC50 [24] was 2.54 µM (active), the EC50 [25] was > 150 µM (inactive) and the IC50 [26] was 0.927 µM (active). The AC50 [27] was 1.04 µM (active) and the EC50 [28] was > 150 µM (inactive).
